Numbered stars: 1 amine (or outer) side, 2 acyl side, 3 side chain; on linkers, the order of the positions; unused ones are H or OH. Bridge positions count the residues as written; N and C are the ends. Side chains are listed from the residue outwards. Peptide text beside a SMILES is read from it. * marks the point of attachment. C20 diacid = O=C(O)CCCCCCCCCCCCCCCCCCC(=O)*; γGlu = O=C(O)[C@H](CCC(=O)[*:2])N[*:1]
Experiments:
[1] = target: T1, human amylin 3(a) receptor (human calcitonin receptor + RAMP-3) in BHK570 cells (Homo sapiens, UniProt O60896+P30988); experiment: ASSAY (II)a functional assay, human amylin receptor (CRE luciferase); format: cell-based
T1 construct: expressed in transfected cells
Procedure, shortened: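 BHK CRE-luc cells, calcitonin (a) receptor ± RAMP-3 (amylin 3(a)); overnight seeding, 37° C/5% CO2. 3 h ligand exposure, DMEM/10% FBS/10 mM Hepes pH 7.4. LucLite 30 min RT; luminescence (SPC).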

[2] = target: T2, human amylin receptor (membranes from Amylin 3(a)/CRE-luc cells) (Homo sapiens, UniProt O60896+P30988); experiment: ASSAY (V) binding to the human amylin receptor (SPA, 125I-rat amylin);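 note: competition binding of cell membranes (35 ng/µL) mixed with SPA beads in 384-well plates at 40 µL total volume, read by scintillation counting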
T2 construct: expressed in transfected cells
T2 sequence (P30988 25-474): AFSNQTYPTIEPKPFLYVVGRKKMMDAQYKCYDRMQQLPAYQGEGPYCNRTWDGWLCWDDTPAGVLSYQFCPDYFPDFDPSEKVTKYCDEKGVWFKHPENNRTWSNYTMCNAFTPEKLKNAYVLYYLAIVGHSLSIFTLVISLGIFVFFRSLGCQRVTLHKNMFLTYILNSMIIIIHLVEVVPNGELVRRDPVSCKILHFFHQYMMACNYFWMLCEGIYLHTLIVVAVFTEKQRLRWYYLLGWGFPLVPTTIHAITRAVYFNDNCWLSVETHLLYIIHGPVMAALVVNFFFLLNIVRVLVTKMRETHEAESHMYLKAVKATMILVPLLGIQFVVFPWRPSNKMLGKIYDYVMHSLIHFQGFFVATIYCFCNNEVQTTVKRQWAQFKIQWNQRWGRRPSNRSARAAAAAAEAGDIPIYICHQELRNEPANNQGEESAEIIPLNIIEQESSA
T2 sequence (O60896 24-148 partner): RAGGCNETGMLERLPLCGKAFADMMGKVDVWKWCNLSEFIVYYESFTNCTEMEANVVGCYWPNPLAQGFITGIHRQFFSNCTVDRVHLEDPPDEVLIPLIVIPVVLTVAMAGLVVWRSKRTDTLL

[3] = ASSAY (III) ThT fibrillation assay for physical stability; format: physicochemical
Procedure, shortened: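 Formulations with 1 μM ThT, pH adjusted as required, incubated at 37 °C with 960 rpm orbital shaking; fluorescence (ex 444/em 485 nm) read every 20 min. Fibrillation reported as mean ThT fluorescence ± SD of 4–8 replicates at time points; polypeptide concentration measured by reverse-phase HPLC before and after, post-centrifugation.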

[4] = hCTR funct. EC50 over hAmylin-R funct. EC50
[5] = human functional selectivity: hCTR funct. EC50 / hAmylin-R funct. EC50
[6] = Table 5, selectivity, hCTR bind IC50 / hAmylin-R bind IC50
[7] = Table 5a, selectivity, hCTR bind IC50 / hAmylin-R bind IC50
[8] = Table 5b, selectivity, hCTR bind IC50 / hAmylin-R bind IC50
[9] = Table 7, human binding selectivity, included for comparison
[10] = Table 7a (preferred compounds), human binding selectivity, included for comparison
[11] = ratio of human calcitonin receptor binding IC50 to human amylin receptor binding IC50
[12] = hCTR funct. EC50 divided by hAmylin-R funct. EC50

Row | SMILES | Ratio hCT/hAmylin funct. [1, 4] | EC50 ([1]; human amylin receptor functional potency, assay (II), read-out: hAmylin-R funct. EC50) [pM] | Ratio hCT/hAmylin funct. [1, 5] | IC50 ([2]; Table 4, read-out: hAmylin-R bind IC50) [pM] | Ratio hCT/hAmylin binding [2, 6] | Ratio hCT/hAmylin binding [2, 7] | Ratio hCT/hAmylin binding [2, 8] | Ratio hCT/hAmylin binding ([2]; Table 5c, selectivity, hCTR bind IC50 / hAmylin-R bind IC50) | Ratio hCT/hAmylin binding [2, 9] | Ratio hCT/hAmylin binding [2, 10] | Ratio hCT/hAmylin binding [2, 11] | ThT pH 4.0 lag time (h) [3] [h] | Ratio hCT/hAmylin funct. [1, 12]
1 | CC(C)C[C@H](NC(=O)[C@H](CCCNC(=N)N)NC(=O)[C@H](CCC(N)=O)NC(=O)[C@@H](NC(=O)[C@H](C)NC(=O)[C@@H]1CSSC[C@H](NC(=O)[C@@H](N)CCCCNC(=O)CC[C@H](NC(=O)CC[C@H](NC(=O)CCCCCCCCCCCCCCCCCCC(=O)O)C(=O)O)C(=O)O)C(=O)N[C@@H](CC(N)=O)C(=O)N[C@@H]([C@@H](C)O)C(=O)N[C@@H](C)C(=O)N[C@@H]([C@@H](C)O)C(=O)N1)[C@@H](C)O)C(=O)N[C@@H](C)C(=O)N[C@@H](CC(=O)O)C(=O)N[C@@H](Cc1ccccc1)C(=O)N[C@@H](CC(C)C)C(=O)N[C@@H](CCCNC(=N)N)C(=O)N[C@@H](Cc1c[nH]cn1)C(=O)N[C@@H](CO)C(=O)N[C@@H](CO)C(=O)N1CCC[C@H]1C(=O)N[C@@H](CC(N)=O)C(=O)N[C@@H](Cc1ccccc1)C(=O)NCC(=O)N[C@@H](C)C(=O)N1CCC[C@H]1C(=O)N[C@@H](CC(C)C)C(=O)N[C@@H](CO)C(=O)N[C@@H](CO)C(=O)N[C@H](C(=O)N[C@@H](CC(N)=O)C(=O)N[C@H](C(=O)NCC(=O)N[C@@H](CO)C(=O)N[C@@H](CC(=O)O)C(=O)N[C@H](C(=O)N[C@@H](Cc1ccc(O)cc1)C(N)=O)[C@@H](C)O)C(C)C)[C@@H](C)O [Example 1] (H-K([γGlu-γGlu-C20 diacid])CNTATCATQRLADFLRHSSPNFGAPLSSTNVGSDTY-NH2; disulfide 2-7) | 12.0 | 224 | 12.0 | 1180 | 27.6 | 27.6 | 27.6 | 27.6 | 27.6 | 27.6 | 27.6 | 0 | –
2 | CC[C@H](C)[C@H](NC(=O)[C@H](C)NC(=O)CNC(=O)[C@H](Cc1ccccc1)NC(=O)[C@H](CC(N)=O)NC(=O)[C@@H]1CCCN1C(=O)[C@H](CO)NC(=O)[C@H](CO)NC(=O)[C@H](Cc1c[nH]cn1)NC(=O)[C@H](CCCNC(=N)N)NC(=O)[C@H](CC(C)C)NC(=O)[C@H](Cc1ccccc1)NC(=O)[C@H](CC(N)=O)NC(=O)[C@H](C)NC(=O)[C@H](CC(C)C)NC(=O)[C@H](CCCNC(=N)N)NC(=O)[C@H](CCC(N)=O)NC(=O)[C@@H](NC(=O)[C@H](C)NC(=O)[C@@H]1CSSC[C@H](NC(=O)[C@H](CCCCN)NC(=O)CC[C@H](NC(=O)CCCCCCCCCCCCCCCCCCC(=O)O)C(=O)O)C(=O)N[C@@H](CC(N)=O)C(=O)N[C@@H]([C@@H](C)O)C(=O)N[C@@H](C)C(=O)N[C@@H]([C@@H](C)O)C(=O)N1)[C@@H](C)O)C(=O)N1CCC[C@H]1C(=O)N[C@@H](CO)C(=O)N[C@@H](CO)C(=O)N[C@H](C(=O)N[C@@H](CC(N)=O)C(=O)N[C@H](C(=O)NCC(=O)N1CCC[C@H]1C(=O)N[C@@H](CCC(=O)O)C(=O)N[C@H](C(=O)N[C@@H](Cc1ccc(O)cc1)C(N)=O)[C@@H](C)O)C(C)C)[C@@H](C)O [Example 29] ({C20 diacid-γGlu}-KCNTATCATQRLANFLRHSSPNFGAIPSSTNVGPETY-NH2; disulfide 2-7) | 8.7 | – | 8.7 | – | 13.9 | 13.9 | – | – | 13.9 | 13.9 | 13.9 | 16 | 8.7
3 | CC[C@H](C)[C@H](NC(=O)[C@H](C)NC(=O)CNC(=O)[C@H](Cc1ccccc1)NC(=O)[C@H](CC(N)=O)NC(=O)[C@@H]1CCCN1C(=O)[C@H](CO)NC(=O)[C@H](CO)NC(=O)[C@H](Cc1c[nH]cn1)NC(=O)[C@H](CCCNC(=N)N)NC(=O)[C@H](CC(C)C)NC(=O)[C@H](Cc1ccccc1)NC(=O)[C@H](CCC(=O)O)NC(=O)[C@H](C)NC(=O)[C@H](CC(C)C)NC(=O)[C@H](CCCNC(=N)N)NC(=O)[C@H](CCC(N)=O)NC(=O)[C@@H](NC(=O)[C@H](C)NC(=O)[C@@H]1CSSC[C@H](NC(=O)[C@H](CCCCN)NC(=O)CC[C@H](NC(=O)CCCCCCCCCCCCCCCCCCC(=O)O)C(=O)O)C(=O)N[C@@H](CC(N)=O)C(=O)N[C@@H]([C@@H](C)O)C(=O)N[C@@H](C)C(=O)N[C@@H]([C@@H](C)O)C(=O)N1)[C@@H](C)O)C(=O)N1CCC[C@H]1C(=O)N[C@@H](CO)C(=O)N[C@@H](CO)C(=O)N[C@H](C(=O)N1CCC[C@H]1C(=O)N[C@H](C(=O)NCC(=O)N[C@@H](CO)C(=O)N[C@@H](CC(N)=O)C(=O)N[C@H](C(=O)N[C@@H](Cc1ccc(O)cc1)C(N)=O)[C@@H](C)O)C(C)C)[C@@H](C)O [Example 31] ({C20 diacid-γGlu}-KCNTATCATQRLAEFLRHSSPNFGAIPSSTPVGSNTY-NH2; disulfide 2-7 (inferred)) | 6.4 | – | 6.4 | – | 16.0 | 16.0 | 16.0 | – | 16.0 | 16.0 | 16.0 | 45 | 6.4
4 | CC[C@H](C)[C@H](NC(=O)[C@H](C)NC(=O)CNC(=O)[C@H](Cc1ccccc1)NC(=O)[C@H](CC(N)=O)NC(=O)[C@@H]1CCCN1C(=O)[C@H](CO)NC(=O)[C@H](CO)NC(=O)[C@H](Cc1c[nH]cn1)NC(=O)[C@H](CCCNC(=N)N)NC(=O)[C@H](CC(C)C)NC(=O)[C@H](Cc1ccccc1)NC(=O)[C@H](CCC(=O)O)NC(=O)[C@H](C)NC(=O)[C@H](CC(C)C)NC(=O)[C@H](CCCNC(=N)N)NC(=O)[C@H](CCC(N)=O)NC(=O)[C@@H](NC(=O)[C@H](C)NC(=O)[C@@H]1CSSC[C@H](NC(=O)[C@H](CCCCN)NC(=O)CC[C@H](NC(=O)CCCCCCCCCCCCCCCCCCC(=O)O)C(=O)O)C(=O)N[C@@H](CC(N)=O)C(=O)N[C@@H]([C@@H](C)O)C(=O)N[C@@H](C)C(=O)N[C@@H]([C@@H](C)O)C(=O)N1)[C@@H](C)O)C(=O)N1CCC[C@H]1C(=O)N[C@@H](CO)C(=O)N[C@@H](CO)C(=O)N[C@H](C(=O)N[C@@H](CC(N)=O)C(=O)N[C@H](C(=O)NCC(=O)N[C@@H](CCCCN)C(=O)N[C@@H](CC(N)=O)C(=O)N[C@H](C(=O)N[C@@H](Cc1ccc(O)cc1)C(N)=O)[C@@H](C)O)C(C)C)[C@@H](C)O [Example 36] ({C20 diacid-γGlu}-KCNTATCATQRLAEFLRHSSPNFGAIPSSTNVGKNTY-NH2; disulfide 2-7 (inferred)) | 6.8 | – | 6.8 | – | 15.7 | 15.7 | 15.7 | – | 15.7 | 15.7 | 15.7 | 45 | 6.8

Source: US9023789B2, “Amylin analogs and pharmaceutical compositions thereof” (Novo Nordisk A/S, priority 2012, dated 2015)
